From patent US20100196521A1, “Formulation for the treatment of hypoxia and related disorders” (priority 2009, published 2010)

How the values were obtained:
[1] = system: cerebral ischemic hypoxia mice; assay: Cerebral circulatory disturbance hypoxia (common carotid artery and vagus ligation), survival; format: in vivo, NIH mice; details: group B: 2.0 mg/kg hypodermic injection once a day for 5 days
Text: (§1) Five test groups were designed for this test, namely the negative control group (A), the positive control medicine group (B), and three groups administrated with the test item at the high (C), medium (D), and low (E) dosage levels. SPF class NIH mice were randomly distributed into 12 to 14 pieces in each group. The design of experiment was described in Table 15.
Mice in negative control group (A) were topically applied with vegetable oil, whereas those in positive control group (B) were administrated with Nimodipine by hypodermic injection. Mice in groups (C), (D), and (E) received the test item through skin administration. All the five groups received the corresponding item once a day for 5 consecutive days. 50 minutes after the final administration of the test item, and 30 minutes after the final administration of Nimodipine, the mice were given an intraperitoneal injection of Urethane (8%, 0.8 g/kg.bw, 10 mL/kg.bw) as anesthetics. The mice then underwent a separation of the left and right common carotid artery as well as the vagus, and were separately ligated with a No. 4 suture. Survival duration for the mice were immediately recorded with a stopwatch, with results as follows: […]

[2] = system: decapitated mice (acute cerebral ischemic hypoxia); assay: Global cerebral ischemia (decapitation method), formal test; format: in vivo, NIH mice; details: group B: 2.0 mg/kg hypodermic injection once a day for 2 days
Text: Five test groups were designed for this test, namely the negative control group (A), the positive control medicine group (B), and three groups administrated with the test item at the high (C), medium (D), and low (E) dosage levels. SPF class NIH mice were randomly distributed into 14 pieces in each group. The design of experiment was described in Table 9. Mice in negative control group (A) were topically applied with vegetable oil, whereas those in positive control group (B) were administrated with Nimodipine by hypodermic injection once a day for 2 consecutive days. Mice in groups (C), (D), and (E) received the test item through skin administration once a day for 7 consecutive days. 60 minutes after the final administration of the test item and vegetable oil to the mice of the corresponding groups, and 30 minutes after the final administration of Nimodipine to the mice of the positive medicine control group, the heads of mice were rapidly severed from the back of ear root with a pair of sharp scissors (decapitation method). The gasping duration and gasping frequency were immediately recorded with a stopwatch The results are shown as follows: […]

[3] = system: methemoglobinemia model mice (sodium nitrite); assay: Sodium nitrite methemoglobinemia model, survival duration; format: in vivo, NIH mice; details: male quasi; for Survival Duration: observed 90 min; for Prolonged Percentage: vs negative control
Text: This test was designed according to the relevant provisions of The Management of Medicine Registration issued by the State Food and Drug Administration (SFDA) of the People's Republic of China, and The Assemble of Guiding Principle of Pre-clinical Research on New Drugs (in Western Medicine) from the Bureau of Drug Administration, Ministry of Public Health, People's Republic of China. Five test groups were designed for this test, namely the negative control group (A), the positive control medicine group (B), and three groups administrated with the test item at the high (C), medium (D), and low (E) dosage levels. SPF class NIH mice were randomly distributed into 10-12 pieces (male quasi) in each group. The design of experiment was described in Table 5.
In establishing the methemoglobinemia model, a 2% sodium nitrite was injected into abdomen of the mice (male mice: 240 mg/kg, 12 mL/kg; female mice: 260 mg/kg, 13 mL/kg). Stopwatch was immediately started to record time and simultaneously, vegetable oil or the test item was applied to the mice of the respective group. Mice in the positive control group I (group B-I) were administered with Nimodipine through gastric gavage an hour before model was established, while those in the positive control group II were administered Nimodipine through gastric gavage immediately upon the setting up of the model. […]

[4] = system: mice in low-pressure hypoxic environment; assay: Hypobaric hypoxia survival test; format: in vivo, NIH mice; details: group B: 26 mg/kg gastric gavage, male quasi
Experimental: as §1, with “12” for “12 to 14”, “13.” for “15.”
One hour after administrating the positive control medicine, and 30 minutes after applying the test item or the negative control in the corresponding groups, the mice (6 mice/batch, 2 batches/group) were put in consecutive order into the vacuum drier connected with a suction (built in soda lime to absorb CO2 and water). The suction process was started until the air pressure dropped to a certain negative pressure (Male mouse: 580 mmHg; female mouse: 600 mmHg). Then, stopwatch was used to record the survival duration and the number of survivals in each group within 60 minutes.

[5] = system: sodium nitrite induced hypoxia model mice; assay: Study on blood pH and blood hypoxia (sodium nitrite induced hypoxia animal model); format: in vivo, SD mice; details: 10 days after
Experimental: In this study regarding oxygen carrying ability of red blood cells, the test item was the formulation as described in Mixture 3 listed in Table 1 (the formulation). First of all, healthy SD mice were fed with sodium nitrite (17 mg/kg) by gastric gavage for 7 consecutive days to induce the hypoxia animal model. The mice were then randomly distributed into 8 groups: (A) normal mice blank control group, (B) normal mice applied with the formulation group (82.5 μL/kg), (C) model mice applied with vitamin C (62.5 mg/kg) control group, (D) model mice applied with vitamin E (104 mg/kg) control group, (E) model mice applied with vegetable oil (82.5 μL/kg) control group, (F) model mice applied with high dose of the formulation (330 μL/kg), (G) model mice applied with medium dose of the formulation (165 μL/kg), (H) model mice applied with low dose of the formulation (82.5 μL/kg). There were 12 mice for each group. On the 7th day of hypoxia model induction, the formulation was applied topically on the mice in the formulation groups (B, F, G and H), and equal amount of vegetable oil was also topically applied on the mice in the group (E). Vitamins C and E were administrated by gastric gavage to mice in groups (C) and (D) respectively. 10 days after the application of the corresponding items, blood samples were taken in which blood pH, arterial oxygen partial pressure (pO2), and blood oxygen were tested, and the results are as listed below: […]

[6] = system: sodium nitrite induced memory consolidated handicap mice; assay: Memory consolidated handicap model, water maze test; format: in vivo, NIH mice; details: group B: 1.04 mg/kg intramuscular injection
Text: […], a cerebral hypoxic agent, was used to establish this memory consolidated handicap model. Due to its strong oxidation property, it could convert low value iron in the hemoglobin into high value iron and thus affects the hemoglobin to lose its anti-oxidative ability, resulting in Methemoglobinemia disease. Brain tissue is the most sensitive tissue to hypoxia and it would be injured once it experienced memory consolidated handicap. Therefore, in the establishment of this model, the applying of […] would affect the space recognition ability of the mice. This test was designed according to the relevant provisions of The Management of Medicine Registration issued by the State Food and Drug Administration (SFDA) of the People's Republic of China, and The Assemble of Guiding Principle of Pre-clinical Research on New Drugs (in Western Medicine) from the Bureau of Drug Administration, Ministry of Public Health, People's Republic of China. Five test groups were designed for this test, namely the negative control group (A), the positive control medicine group (B), and three groups administrated with the test item at the high (C), medium (D), and low (E) dosage levels. […] The design of experiment was described in Table 11. Each group of mice was continuously trained for 5 days, once in the morning and once in the afternoon, for 60 seconds in each training session. Before the training session on the afternoon of the 5th day, sodium nitrite was administered at dose level of 160 mg/kg to the mice through hypodermic injection to induce the mice to experience memory consolidated handicap symptom. 30 minutes after medication, the water maze test was carried out. The aforesaid test was then repeated on the following morning.

[7] = group B-I: 62 mg/kg gastric gavage an hour before model
[8] = group B-II: 62 mg/kg gastric gavage immediately upon model
[9] = group C: hypoxia model mice, 62.5 mg/kg gastric gavage
[10] = group D: hypoxia model mice, 104 mg/kg gastric gavage

Compound: COCCOC(=O)C1=C(C)NC(C)=C(C(=O)OC(C)C)C1c1cccc([N+](=O)[O-])c1 (stereo not shown) [Nimodipine]
- Survival Duration [1]: 55.4 ± 15.2 min
- Prolonged Percentage ([1]; vs negative control): 1224.3%
- Gasping Duration, Time [2]: 24.6 ± 4.6 s
- Gasping Frequency, Times [2]: 14.5 ± 3.6 Times
- Gasping Duration, Extension Rate ([2]; vs negative control): 28.6%
- Gasping Frequency, Increment Rate ([2]; vs negative control): 25.6%
- Survival Duration [3, 7]: 48.44 ± 21.36 min
- Prolonged Percentage [3, 7]: 56.26%
- Survival Duration [3, 8]: 39.10 ± 17.30 min
- Prolonged Percentage [3, 8]: 26.24%

Compound: CC(C)NCC(O)COc1cccc2ccccc12 (stereo not shown) [Propranolol]
- Prolonged Percentage ([4]; vs negative control): 108.4%
- Survival Duration ([4]; within 60 minutes): 50.40 ± 16.33 min
- Survival Percentage ([4]; within 60 minutes): 41.7%

Compound: O=C1O[C@H]([C@@H](O)CO)C(O)=C1O [Vitamin C, vitamin C]
- Blood oxygen [5, 9]: 93.6 ± 1.3 %
- Blood pH [5, 9]: 7.420 ± 0.036
- Oxygen partial pressure [5, 9]: 10.51 ± 0.96 kPa
- Time to Reach the Platform ([6]; Day 5, Afternoon (after sodium nitrite 160 mg/kg)): 46.9 ± 15.5 s
- Time to Reach the Platform ([6]; Day 5, Morning (before sodium nitrite)): 42.0 ± 24.3 s
- Time to Reach the Platform ([6]; Day 6, Morning): 41.7 ± 21.1 s

Compound: vitamin E
- Blood oxygen [5, 10]: 94.0 ± 2.1 %
- Blood pH [5, 10]: 7.455 ± 0.049
- Oxygen partial pressure [5, 10]: 10.76 ± 2.14 kPa
